# System: A549 cells
# Assay: Apoptotic caspase activation (Western blot for PARP cleavage)
# Conditions: 48 h, extract 25 μg/ml and 50 μg/ml, staurosporine as positive control, FIG. 3
smiles,measurement,value
CN[C@@H]1C[C@H]2O[C@@](C)([C@@H]1OC)n1c3ccccc3c3c4c(c5c6ccccc6n2c5c31)C(=O)NC4 [staurosporine],cleavage of the caspase substrate PARP (caspase activity),efficient cleavage of the caspase substrate
